Common to all, as to test: NCI tumour cell line growth inhibition, 48 h
Test [1] has as its system SR leukemia.
Test [2] has as its system ACHN renal.
In test [3] the test system is LOX IMVI melanoma.
In test [4] the test system is T-47D breast.
Test [5] concerns OVCAR-3 ovarian.
Test [6] concerns TK-10 renal.
Test [7] relates to NCI-H226 lung.
Test [8] concerns A498 renal.
Test [9] concerns UO-31 renal.
For test [10], the system named is SK-MEL-5 melanoma.

Values joined by “and” are separate entries in the source; they are usually repeats but may differ in a detail not shown here. Equal values may be shown once.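 Each compound was tested at five concentrations against cells in 96-well plates for 48 hours. At the GI50, growth is halved. The concentration for full growth arrest is given as TGI.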

From PubChem BioAssay (NCI) come the findings set out here.

For the molecule `O=C1NC(=O)C2(CCC(O)C2)c2cc[n+]([O-])cc21` (centres undefined), the TGI in test [1], in test [2], in test [3], in test [4], in test [5] and in test [6] was over 100 µM in each case. Further, the TGI in [7], in test [8] and in test [9] was over 100 µM each time.

Turning to `CC12CCc3ccccc3C1=Nc1ccccc12` (centres undefined), the TGI in test [1] is over 100 µM; in test [2], over 100 µM; in [3], over 100 µM; in test [4], over 100 µM; in test [5] it was 66.5 µM; in test [10], 30.4 µM. In addition, the TGI is over 100 µM in [6], 89.8 µM in test [7] and over 100 µM in [9].

As to `Oc1ccc(Br)cc1/C=N/NC(=S)NC12CC3CC(CC(C3)C1)C2`, the GI50 in test [1] is 0.682 µM; in test [2], 2.08 µM; in test [3], 1.22 µM; in test [4], 2.15 µM; in test [5] it was 1.67 µM; in test [10], 1.72 µM. In addition, the GI50 in test [7] was 1.95 µM; in test [8], 2.18 µM; in test [9] it was 1.33 µM. Further, the TGI in [1] turned out to be 3.47 µM; in [2], 10.3 µM; in test [3], 2.88 µM; in test [4] it was 8.33 µM; in [5] it was 3.71 µM; in test [10], 3.74 µM. For the same molecule, the figures for the TGI in [7], in test [8] and in test [9] were 4.8 µM, 7.19 µM and 2.78 µM, respectively.

With `CCCCSCc1nc2nc(Cl)c(Cl)nc2[nH]1`, the TGI in test [1] was found to be 52.3 µM; in test [2], 71.5 µM; in [3], 44.5 µM; in [4] it was 62.9 µM; in test [5], 36.7 µM; in test [10] it was 28.8 µM. Moreover, the TGI in [6] amounted to 73.9 µM; in test [7], 62.7 µM; in test [8], 60.6 µM.

As to `CCOC(=O)c1c(C)n(CC(C)C)c2c1cc1oc(=O)c(=O)n3cnc2c13`, the GI50 in [1] was 10.4 µM; in test [2], 9.34 µM; in test [3], 8.45 µM; in test [5], 11.2 µM; in [10], 10.1 µM; in test [6], 13.3 µM. Besides, the GI50 is 9.63 µM in test [7], 14.2 µM in test [8] and 20.7 µM in test [9]. Moreover, the TGI in [1] was over 50 µM; in [2], 24.1 µM; in test [3], 16 µM; in test [5] it was 25.9 µM; in test [10] it was 19.8 µM; in test [6], 47.6 µM. Moreover, the TGI in [7] was 29.2 µM; in [8], 41.3 µM; in test [9] it was over 50 µM.

With `COc1cc(OC)c(OC)cc1/C=C1\C=Cc2ccccc21`, the TGI in test [1] is over 100 µM; in [2] it was over 100 µM; in test [3], 33.4 µM; in test [4], over 100 µM; in test [10], 26.1 µM; in test [6], 80 µM. For the same molecule, the TGI was over 100 µM in [7] and 64.2 µM in test [9].

As to `C[C@@]1(c2ncncc2F)NC(=O)c2cc(-c3cn[nH]c3)ccc21`, the GI50 in test [1] was 15.6 µM; in test [3] it was 8.23 µM; in [4] it was 27.9 µM; in [5], 21.9 µM; in test [10], 20 µM; in test [6], 10.9 µM. The values for the GI50 in [7], in test [8] and in [9] were 20.1 µM, 14.4 µM and 17.2 µM, respectively. Moreover, the TGI in test [1] was over 100 µM; in [3] it was over 100 µM; in test [4], over 100 µM; in test [5], over 100 µM; in test [10], over 100 µM; in test [6], 58.3 µM. For the same molecule, the TGI in test [7] was over 100 µM; in [8], 50.5 µM; in test [9], 72.8 µM.

As to `CC1=Nc2c([nH]c(=S)[nH]c2=O)NC(c2ccc(Cl)c(Cl)c2)C1` (centres undefined), the TGI is over 100 µM in test [1]; over 100 µM in [2]; 40.3 µM in [3]; 38.3 µM in test [5]; over 60.7 µM in [10]; over 87.7 µM in test [6]. In addition, the TGI in test [7] was 48.8 µM; in test [8], 33.3 µM; in test [9], 89.6 µM.

Turning to `O=C(O)c1ccc(N=Nc2cc(S(=O)(=O)O)c3cccnc3c2O)cc1`, the TGI in [1], in [2], in [3], in [5], in test [10] and in [6] was over 100 µM throughout. Also, the TGI in [7], in test [8] and in [9] was over 100 µM throughout.

Take `c1ccc2cc(OCC3CO3)c(OCC3CO3)cc2c1` (centres undefined): the TGI was 2.15 µM in test [1]; 6.05 µM in [2]; 12 µM in test [3]; 45.4 µM in [4]; 27.9 µM in [5]; 21.2 µM in test [10]. Further, the TGI was determined as 49.2 µM in test [6], 24.7 µM in test [8] and 21.8 µM in test [9].

Regarding `CC(C)=CCC/C(C)=C/CC/C(=C/COP(=O)(OCc1ccc([N+](=O)[O-])o1)N(C)CCCCCl)CC=C(C)C` (centres undefined), the GI50 in test [1] is 3.02 µM; in [3], 2.92 µM; in [4], 38 µM; in test [5], 11.6 µM; in test [10], 3.96 µM; in test [6] it was 14.6 µM. In [9], the GI50 is 5.56 µM. Also, the TGI in test [1] was over 100 µM; in [3] it was 11.5 µM; in test [4], over 100 µM; in test [5] it was 29.4 µM; in [10] it was 12.1 µM; in [6], 30.8 µM. The molecule also gave a TGI in [9] of 18.2 µM.

With `N#CCC(=O)N/N=C1/C(=O)NC(=O)C(=O)C1c1nc2ccccc2s1` (centres undefined), the TGI in test [1], in test [2], in test [3], in test [5], in [10] and in [6] was over 100 µM in each case. The TGI in test [7], in test [8] and in test [9] was over 100 µM each time.

`CC(F)(F)c1cc(F)ccc1-c1sc2cc(O)ccc2c1Oc1ccc(/C=C/C(=O)O)cc1`: the GI50 in test [1] was 3.66 µM; in [2], 10.3 µM; in [3], 6.96 µM; in [4] it was 7.1 µM; in test [5], 8.81 µM; in test [10], 4.05 µM. The values for the GI50 in [6], in test [7] and in test [9] were 22 µM, 5.78 µM and 12.9 µM, respectively. The TGI was over 100 µM in test [1]; 45.5 µM in test [2]; 21.9 µM in test [3]; 50 µM in test [4]; 20.9 µM in [5]; 15.3 µM in [10]. Besides, the TGI in test [6] was over 100 µM; in test [7], 25 µM; in [9], 31.5 µM.

On to `CN(C)c1nc(N(C)C)n2nc(-c3ccccc3[N+](=O)[O-])nc2n1`, for which the TGI in test [1], in test [2], in test [3], in test [5], in test [10] and in test [6] was over 100 µM each time. Besides, the TGI in [7], in test [8] and in test [9] was over 100 µM each time.

Turning to `O=C(N=Nc1c(O)[nH]c2c(Cl)cc(Cl)cc12)c1ccncc1`, the TGI is 69.2 µM in test [1]; over 100 µM in [2]; 42.3 µM in test [3]; 37.5 µM in test [5]; 33.4 µM in test [10]; over 100 µM in test [6]. The TGI in [7], in test [8] and in test [9] was over 100 µM throughout.

As for `CC(C)c1cc(CNc2nc(Nc3cc(C4CC4)[nH]n3)cc(N3CCN(C)CC3)n2)on1`, the GI50 in test [1] was 0.0422 µM and < 0.0198 µM; in test [5], 2.14 µM and 0.256 µM; in test [10] it was > 10 µM and 1.32 µM; in test [6], 0.53 µM and 0.277 µM; in test [7], 0.363 µM and 0.0576 µM; in test [9], 2 µM and 0.688 µM. Moreover, the TGI was 3.42 µM and 1.47 µM in test [1]; > 10 µM and 6.66 µM in [2]; > 10 µM and 9.84 µM in [4]; > 10 µM and 4.1 µM in test [5]; > 10 µM and 4.72 µM in [10]; 4.19 µM and 5.52 µM in [6]. Further, the TGI in [7] is 4.18 µM and 3.6 µM; in [9], > 10 µM and 5.9 µM.

Take `Fc1ccc(F)c(C2SCc3nc4ccccc4n32)c1` (centres undefined): the TGI was over 100 µM in test [1]; over 100 µM in test [2]; over 100 µM in test [3]; over 100 µM in test [5]; 46.6 µM in [10]; over 100 µM in test [6]. Also, the TGI in test [7], in [8] and in test [9] was over 100 µM in each case.

As to `COc1ccc(/C=C/c2nc(=S)[nH][nH]2)cc1`, the TGI in [1], in test [2], in [3], in test [5], in [10] and in [6] was over 100 µM in each case. In addition, the TGI in [7], in test [8] and in test [9] was over 100 µM each time.

Turning to `COC(=O)C1=C(c2cc(OC)c(OC)c(OC)c2)OC(c2cc(OC)c(OC)c(OC)c2)C1COC(C)=O` (centres undefined), the TGI in test [1] is 52.2 µM; in [2], over 100 µM; in test [3], 57 µM; in [5], over 100 µM; in test [10], 97.8 µM; in [6], over 100 µM. The TGI in [7], in test [8] and in test [9] was over 100 µM each time.

With `CS(=O)c1ccc(-c2nc(-c3ccc(F)cc3)c(-c3ccncc3)[nH]2)cc1` (centres undefined), the GI50 was 16.4 µM in test [1]; 21.4 µM in test [2]; 18 µM in test [4]; 25.9 µM in test [5]; 20.3 µM in test [10]; 24.3 µM in test [6]. Further, the values for the GI50 in test [7], in [8] and in test [9] were 24.7 µM, 10.6 µM and 20.1 µM, respectively. Besides, the TGI in test [1] is over 77 µM; in test [2], over 100 µM; in test [4], over 100 µM; in test [5], over 100 µM; in test [10], 50.5 µM; in test [6] it was over 78.1 µM. The TGI in [7] is over 73.1 µM; in test [8], 53.5 µM; in test [9], over 79.6 µM.

Turning to `OCC(O)COc1c(Cl)ccc(Cl)c1Cl` (centres undefined), the TGI in [1], in test [2], in test [3], in [5], in test [10] and in test [6] was over 100 µM throughout. Besides, the TGI in test [7], in test [8] and in [9] was over 100 µM in each case.

With `COc1ccc(/C(Cl)=C(\C=O)c2ccc(OC)c(OC)c2)cc1OC`, the TGI was over 100 µM in test [1]; over 100 µM in test [2]; over 100 µM in test [3]; over 57.7 µM in [5]; over 100 µM in [10]; over 100 µM in test [6]. Besides, the figures for the TGI in test [7], in [8] and in test [9] were 99.9 µM, over 100 µM and over 100 µM, respectively.

In the case of `C=CC[Se]C(=O)Cc1c(C)n(C(=O)c2ccc(Cl)cc2)c2ccc(OC)cc12`, the GI50 in [1] is 2.29 µM; in test [2], 1.79 µM; in test [3] it was 1.74 µM; in test [4] it was 2.29 µM; in test [5] it was 1.78 µM; in [10] it was 1.73 µM. In addition, the GI50 in test [6] was 1.75 µM; in test [8], 1.52 µM; in [9] it was 1.54 µM. The TGI in [1] is 8.19 µM; in test [2], 3.25 µM; in test [3] it was 3.34 µM; in test [4] it was 5.7 µM; in test [5] it was 3.24 µM; in [10], 3.13 µM. For the same molecule, the TGI in test [6] was 3.19 µM; in test [8], 4.25 µM; in test [9], 2.88 µM.

Take `O=C(CCCNC(=O)OCc1ccccc1)OCc1ccc2c(c1)C(=O)c1ccccc1C2=O`: the TGI in test [1], in test [2], in test [3], in test [5], in test [10] and in [6] was over 100 µM in each case. Besides, the TGI in test [7] was 42.6 µM; in test [8], over 100 µM; in test [9], over 100 µM.
